# Measurements taken from patent publication US9469615B2, “Quinoxalines and AZA-quinoxalines as CRTH2 receptor modulators” (Merck Sharp & Dohme Corp., priority 2010, dated 2016).
# Target: T1, hCRTH2 (Homo sapiens, UniProt Q9Y5Y4)
# T1 construct: expressed in transfected cells; host or cells: HEK (human embryonic kidney) cells expressing hCRTH2; membrane preparation
# T1 sequence (Q9Y5Y4 1-395): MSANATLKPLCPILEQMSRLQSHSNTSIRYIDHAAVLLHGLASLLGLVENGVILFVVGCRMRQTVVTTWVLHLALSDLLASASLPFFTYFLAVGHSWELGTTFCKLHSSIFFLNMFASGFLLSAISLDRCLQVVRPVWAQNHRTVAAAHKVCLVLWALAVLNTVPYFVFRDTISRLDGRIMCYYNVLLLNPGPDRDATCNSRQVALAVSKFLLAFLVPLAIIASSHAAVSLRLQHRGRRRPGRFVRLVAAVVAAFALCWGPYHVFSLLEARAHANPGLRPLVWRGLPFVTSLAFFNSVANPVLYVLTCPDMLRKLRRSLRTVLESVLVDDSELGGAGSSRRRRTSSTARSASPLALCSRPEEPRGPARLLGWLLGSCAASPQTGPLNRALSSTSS
# Experiment: Radioligand binding assay ([3H]PGD2 competition, HEK-hCRTH2 membranes)
# Conditions: [3H]PGD2 binding, rated A-E (Table A)
# Procedure: Biological Assays Radioligand Binding Assay.
# Radioligand binding assays were performed at room temperature in 50 mM Tris-HCl pH 7.4, 1 mM EDTA containing 2 mM MnCl2 and 3.0 nM [^3H]PGD2 (New England Nuclear, Boston, Mass.) (171 Ci mmol^−1), in a final volume of 0.2 mL. Competing ligands were diluted in dimethylsulfoxide (Me2SO) that was kept constant at 1% (v/v) of the final incubation volume. The reaction was initiated by the addition of 8-20 μg of membrane protein prepared from a human embryonic kidney (HEK)-hCRTH2 cell line. Total and non-specific binding were determined in the absence and the presence of 10 μM PGD2, respectively. […] The reaction was routinely conducted for 60 min at room temperature and terminated by rapid filtration through prewetted (0.3% polyethyleneimine) 96-well printed Filtermate™ (Wallac) using a Tomtec® harvester (Hamden, Conn.). After washing with cold buffer, the filter was dried for 2 minutes in microwave, and Meltilex Scintillator sheet (Wallac) was melted on for 2 min. The radioactivity was measured with Betaplate model 1205 (Wallac).
row,SMILES,Ki [nM]
1,"C[C@H](c1ccccc1)N(C)C(=O)c1ccc2nc(-c3ccc(F)cc3)c(CCCCC(=O)O)nc2c1 [compound 21, (R)-5-(3-(4-fluorophenyl)-7-(methyl(1-phenylethyl)carbamoyl)quinoxalin-2-yl)pentanoic acid]",0.1 to 2
2,"O=C(O)CCCCc1nc2cc(C(=O)N3CCC(c4ncccn4)CC3)ccc2nc1-c1ccccc1 [compound 245, 3-phenyl-7-[[4-(2-pyrimidinyl)-1-piperidinyl]carbonyl]-2-quinoxalinepentanoic acid]",2.1 to 20
3,"C[C@]1(c2ccccc2)CCCN(C(=O)c2ccc3nc(-c4ccccc4)c(CCCCC(=O)O)nc3c2)C1 [compound 170, 7-[(3(R)-methyl-3-phenyl-1-piperidinyl)carbonyl]-3-phenyl-2-quinoxalinepentanoic acid]",2.1 to 20
4,"O=C(O)Cc1cccc(CCc2nc3cc(C(=O)N4CCN(c5ccccc5)CC4)ccc3nc2-c2ccc(F)cc2)c1 [compound 199, 3-[2-[3-(4-fluorophenyl)-7-[(4-phenyl-1-piperazinyl)carbonyl]-2-quinoxalinyl]ethyl] benzeneacetic acid]",2.1 to 20
5,"C[C@@H]1CN(c2ccc(F)cc2)CCN1C(=O)c1ccc2nc(-c3ccccc3)c(NCCCC(=O)O)nc2c1 [compound 44, (R)-4-((7-(4-(4-fluorophenyl)-2-methylpiperazine-1-carbonyl)-3-phenylquinoxalin-2-yl)amino)butanoic acid]",2.1 to 20
6,"C[C@@H](NC(=O)c1ccc2nc(-c3ccccc3)c(CC[C@H]3C[C@@H]3C(=O)O)nc2c1)c1ccc(Cl)cc1 [compound 233, trans-2-[2-[7-[[[1(R)-(4-chlorophenyl)ethyl]amino]carbonyl]-3-phenyl-2-quinexalinyl]ethyl]cyclopropanecarboxylic acid]",2.1 to 20

# Second part, the compound after the results:
row,Ki [nM],SMILES
1,2.1 to 20,"CC(CCc1nc2cc(C(=O)NCc3cccc(Cl)c3)ccc2nc1-c1ccc(C(F)(F)F)cc1)CC(=O)O (stereo not drawn) [17Q, 7-[[[(3-chlorophenyl)methyl]amino]carbonyl]-beta-methyl-3-[4-(trifluoromethyl)phenyl]-2-quinoxalinepentanoic acid]"
2,2.1 to 20,"CC(NC(=O)c1ccc2nc(-c3ccccc3)c(CCCCC(=O)O)nc2c1)c1ccccc1F (stereo not shown) [15BH, 5-(7-{[1-(2-fluorophenyl)ethyl]carbamoyl}-3-phenylquinoxalin-2-yl)pentanoic acid]"
3,2.1 to 20,"O=C(O)CCCCc1nc2cc(C(=O)N3CC[C@H](c4ccccc4)C3)ccc2nc1-c1ccc(Cl)cc1 [16L, 3-(4-chlorophenyl)-7-[(3(R)-phenyl-1-pyrrolidinyl)carbonyl]-2-quinoxalinepentanoic acid]"
4,2.1 to 20,"O=C(O)CCCCc1nc2cc(C(=O)NC3c4ccccc4CC3O)ccc2nc1-c1ccccc1 (stereo not shown) [15AQ, 5-{7-[(2-hydroxy-2,3-dihydro-1H-inden-1-yl)carbamoyl]-3-phenylquinoxalin-2-yl}pentanoic acid]"
5,0.1 to 2,"N#CC1(c2ccccc2)CCN(C(=O)c2ccc3nc(-c4ccc(Cl)cc4)c(CCCCC(=O)O)nc3c2)CC1 [16AK, 3-(4-chlorophenyl)-7-[(4-cyano-4-phenyl-1-piperidinyl)carbonyl]-2-quinoxalinepentanoic acid]"
6,0.1 to 2,"O=C(O)CCCCc1nc2cc(C(=O)N3CC(c4ccccc4)C3)ccc2nc1-c1ccc(Cl)cc1 [16AF, 3-(4-chlorophenyl)-7-[(3-phenyl-1-azetidinyl)carbonyl]-2-quinoxalinepentanoic acid]"
7,2.1 to 20,"O=C(O)CCCNc1nc2cc(C(=O)N3CCN(c4ccc(F)cc4)CC3)ccc2nc1-c1ccccc1 [44H, 4-((7-(4-(4-fluorophenyl)piperazine-1-carbonyl)-3-phenylquinoxalin-2-yl)amino)butanoic acid]"
8,0.1 to 2,"O=C(O)CCCNc1nc2cc(C(=O)N3CCC(c4ccc(Cl)cc4)CC3)ccc2nc1-c1ccccc1 [44K, 4-((7-(4-(4-chlorophenyl)piperidine-1-carbonyl)-3-phenylquinoxalin-2-yl)amino)butanoic acid]"

# Same assay, conditions: [3H]PGD2 binding, values in text
row,Ki [nM],SMILES
1,1.3,"O=C(O)CCCCc1nc2cc(C(=O)N[C@H]3CCOc4ccccc43)ccc2nc1-c1ccc(Cl)cc1 [compound 507, (S)-5-(3-(4-chlorophenyl)-7-(chroman-4-ylcarbamoyl)quinoxalin-2-yl)pentanoic acid]"
2,3.1,"O=C(O)CCCNc1nc2cc(C(=O)N3CCN(c4ccc(F)cc4)CC3)ccc2nc1-c1ccccc1 [44H, 4-((7-(4-(4-fluorophenyl)piperazine-1-carbonyl)-3-phenylquinoxalin-2-yl)amino)butanoic acid]"

# Same assay, conditions: [3H]PGD2 competition, Table B
row,Ki [nM],SMILES
1,201 to 700,"O=C(O)Cc1cccc(CCCc2nc3cc(C(=O)N[C@@H]4CCCc5ccccc54)ccc3nc2-c2ccc(F)cc2)c1 [compound 269, (R)-2-(3-(3-(3-(4-fluorophenyl)-7-((1,2,3,4-tetrahydronaphthalen-1-yl)carbamoyl)quinoxalin-2-yl)propyl)phenyl)acetic acid]"
2,2.1 to 20,"C[C@H]1CN(c2ccc(Cl)cc2)CCN1C(=O)c1ccc2nc(-c3ccc(F)cc3)c(CCCCC(=O)O)nc2c1 [compound 542, (S)-5-(7-(4-(4-chlorophenyl)-2-methylpiperazine-1-carbonyl)-3-(4-fluorophenyl)quinoxalin-2-yl)pentanoic acid]"
3,2.1 to 20,"O=C(O)CCCCc1nc2cc(C(=O)N3CCCC34CCc3cc(F)ccc34)ccc2nc1-c1ccc(Cl)cc1 (stereo not shown) [compound 656, 5-(3-(4-chlorophenyl)-7-(5-fluoro-2,3-dihydrospiro [indene-1,2′-pyrrolidin]-1′-ylcarbonyl)quinoxalin-2-yl)pentanoic acid]"
4,0.1 to 2,"CC(CCc1nc2cc(C(=O)N[C@H](C)c3ccc(F)cc3)ccc2nc1-c1ccc(F)cc1)CC(=O)O (stereo partly drawn) [compound 432, 5-(3-(4-fluorophenyl)-7-(((R)-1-(4-fluorophenyl)ethyl)carbamoyl)quinoxalin-2-yl)-3-methylpentanoic acid]"
5,0.1 to 2,"O=C(O)CCCCc1nc2cc(C(=O)N3CCN(c4c(Cl)cncc4Cl)CC3)ccc2nc1-c1ccc(Cl)cc1 [compound 596, 5-(3-(4-chlorophenyl)-7-(4-(3,5-dichloropyridin-4-yl)piperazine-1-carbonyl)quinoxalin-2-yl)pentanoic acid]"
6,2.1 to 20,"O=C(O)CCCCc1nc2cc(C(=O)N3CCN(Cc4ccccc4)CC3)ccc2nc1-c1ccccc1 [compound 302, 5-(7-(4-benzylpiperazine-1-carbonyl)-3-phenylquinoxalin-2-yl)pentanoic acid]"
7,2.1 to 20,"O=C(O)CCCCc1nc2cc(C(=O)NC3CC(=O)Nc4ccc(F)cc43)ccc2nc1-c1ccccc1 (stereo not shown) [compound 284, 5-(7-((6-fluoro-2-oxo-1,2,3,4-tetrahydroquinolin-4-yl)carbamoyl)-3-phenylquinoxalin-2-yl)pentanoic acid]"
8,0.1 to 2,"O=C(O)CCCCc1nc2cc(C(=O)N[C@H]3CCOc4ccccc43)ccc2nc1-c1ccc(Cl)cc1 [compound 507, (S)-5-(3-(4-chlorophenyl)-7-(chroman-4-ylcarbamoyl)quinoxalin-2-yl)pentanoic acid]"
9,2.1 to 20,"C[C@@H]1CN(c2ccccc2)CCN1C(=O)c1ccc2nc(-c3ccc(F)cc3)c(CCCCC(=O)O)nc2c1 [compound 499, (R)-5-(3-(4-fluorophenyl)-7-(2-methyl-4-phenyl-piperazine-1-carbonyl)quinoxalin-2-yl)pentanoic acid]"
10,2.1 to 20,"Cc1cnc(C)c(N2CCN(C(=O)c3ccc4nc(-c5ccc(Cl)cc5)c(CCCCC(=O)O)nc4c3)CC2)n1 [compound 681, 5-(3-(4-chlorophenyl)-7-(4-(3,6-dimethylpyrazin-2-yl)piperazine-1-carbonyl)quinoxalin-2-yl)pentanoic acid]"
11,2.1 to 20,"O=C(N[C@@H]1CCCc2cc(Cl)ccc21)c1ccc2nc(-c3ccc(F)cc3)c(CCCC(F)(F)C(=O)O)nc2c1 [compound 475, (R)-5-(7-((6-chloro-1,2,3,4-tetrahydronaphthalen-1-yl)carbamoyl)-3-(4-fluorophenyl)quinoxalin-2-yl)-2,2-difluoropentanoic acid]"
12,20.1 to 200,"O=C(O)CCCCc1nc2cc(C(=O)N3CCn4c(nnc4C(F)(F)F)C3)ccc2nc1-c1ccc(Cl)cc1 [compound 436, 5-(3-(4-chlorophenyl)-7-(3-(trifluoromethyl)-5,6,7,8-tetrahydro-[1,2,4]triazolo[4,3-a]pyrazine-7-carbonyl)quinoxalin-2-yl)pentanoic acid]"
13,2.1 to 20,"C[C@@H](CCCc1nc2cc(C(=O)N[C@H]3CCCc4ccccc43)ccc2nc1-c1ccc(F)cc1)C(=O)O [compound 483, (S)-5-(3-(4-fluorophenyl)-7-(((S)-1,2,3,4-tetrahydronaphthalen-1-yl)carbamoyl)quinoxalin-2-yl)-2-methylpentanoic acid]"
14,2.1 to 20,"CN1CCN(C(=O)c2ccc3nc(-c4ccc(Cl)cc4)c(CCCCC(=O)O)nc3c2)C(c2ccccc2)C1 (stereo not shown) [compound 666, 5-(3-(4-chlorophenyl)-7-(4-methyl-2-phenylpiperazine-1-carbonyl)quinoxalin-2-yl)pentanoic acid]"
15,20.1 to 200,"C[C@H](CCc1nc2cc(C(=O)N3CC(c4cccc(F)c4)C3)ccc2nc1-c1ccccc1)CC(=O)O [compound 281, (R)-5-(7-(3-(3-fluorophenyl)azetidine-1-carbonyl)-3-phenylquinoxalin-2-yl)-3-methylpentanoic acid]"
